Columns and labels:
LnmJ-SH = target: T1, LnmJ-SH (Streptomyces atroolivaceus, UniProt Q8GGP2); test: pyruvate release, OPD derivatization, HPLC; type: biochemical; conditions: 0.2 mM PLP, 20 mM KCl, 28 °C
T1 construct: E. coli, plasmid pBS3109, published procedure; PLP-dependent

GnmT-SH = system: T2, GnmT-SH; test: pyruvate release, OPD derivatization, HPLC; type: biochemical, Streptomyces sp. CB01883; conditions: 0.2 mM PLP, 20 mM KCl, 28 °C
T2 construct: N-terminal His6 tag (same procedure as GnmP), E. coli, plasmid pBS21022; PLP-dependent

WsmR-SH = system: T3, WsmR-SH; test: pyruvate release, OPD derivatization, HPLC; type: biochemical, Streptomyces sp. CB02120-2; conditions: 0.2 mM PLP, 20 mM KCl, 28 °C
T3 construct: N-terminal His6 tag (same procedure as GnmP), E. coli, plasmid pBS22010; PLP-dependent

GnmP [1] = system: T4, GnmP; test: HPLC of S-methylated product; type: biochemical, Streptomyces sp. CB01883; conditions: 2 mM SAM; 50 mM sodium phosphate pH 8.0; 28 °C
T4 construct: N-terminal His6-tagged GnmP, E. coli BL21(DE3), plasmid pBS21021

GnmP [2] = system: T4, GnmP; test: HPLC of methylated product […], WsmR-SH coupled; type: biochemical, Streptomyces sp. CB01883; conditions: 7 generated in situ from 9 as surrogate substrate by 220 µM WsmR-SH; 2 mM SAM; 50 mM sodium phosphate pH 8.0; 28 °C; methods print substrate range in mM

T1 sequence (Q8GGP2 entry or part of it): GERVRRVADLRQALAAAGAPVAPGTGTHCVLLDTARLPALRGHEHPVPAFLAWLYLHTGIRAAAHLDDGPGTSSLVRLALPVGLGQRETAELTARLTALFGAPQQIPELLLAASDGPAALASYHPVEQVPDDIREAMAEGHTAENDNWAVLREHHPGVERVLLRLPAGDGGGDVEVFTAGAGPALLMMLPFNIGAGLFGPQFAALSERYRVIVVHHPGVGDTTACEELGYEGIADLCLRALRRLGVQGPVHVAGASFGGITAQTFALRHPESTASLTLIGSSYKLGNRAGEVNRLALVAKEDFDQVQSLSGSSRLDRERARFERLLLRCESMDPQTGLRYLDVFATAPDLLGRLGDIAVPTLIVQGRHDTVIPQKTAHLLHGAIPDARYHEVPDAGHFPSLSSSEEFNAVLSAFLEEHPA

Compound	Km (LnmJ-SH; 50 mM sodium phosphate pH 7.2)	Km (GnmT-SH; 50 mM sodium phosphate pH 7.2)	Km (WsmR-SH; 50 mM sodium phosphate pH 7.2)	further results
CC(=O)NCCSC(=O)CC(C)(C)SC[C@H](N)C(=O)O [compound 16, N-acetylcysteamine thioester (SNAC) of a truncated L-cysteine-polyketide adduct]	69 ± 11 mM	41 ± 5 mM	54 ± 10 mM	
CC(=O)NCCSC(=O)CC(C)(C)SSC[C@H](N)C(=O)O [compound 17, SNAC of a truncated L-thiocysteine-polyketide adduct]	9 ± 0.9 mM	7.7 ± 1.2 mM	6.6 ± 0.7 mM	
GNM B [compound 4]				Km (GnmP [1]): 0.0121 ± 0.0022 mM
GNM P [compound 7]				Km (GnmP [2]): 0.00245 ± 0.00041 mM
L-cysteinyl-GNM B adduct [compound 9]				Km (LnmJ-SH; Tris-HCl pH 8.5): 7.04 ± 0.84 mM; Km (GnmT-SH; 50 mM sodium phosphate pH 8.0): 3.2 ± 0.3 mM; Km (WsmR-SH; 50 mM sodium phosphate pH 8.0): 1.45 ± 0.12 mM

Source: paper PMC8479088, “Thiocysteine lyases as polyketide synthase domains installing hydropersulfide into natural products and a hydropersulfide methyltransferase” (Nature Communications, 2021)
